The values that follow come from ChEMBL document CHEMBL1201862, “PubChem BioAssay data set” (2004).

The subject of one test is P388/ADR. Put plainly: cells. The test is classed as functional. As to conditions: Mus musculus.
A further test relates to P388. Put plainly: cells. It counts as functional. As to conditions: Mus musculus.
Another test deals with SN12K1. The experiment in a line: cells. It counts as functional. As to conditions: Homo sapiens.
In test [1] the target is Voltage-dependent T-type calcium channel subunit alpha-1H (Homo sapiens, UniProt O95180). It counts as functional.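 Further: channel activity triggered by adding a high calcium stimulation buffer.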
Chain of Voltage-dependent T-type calcium channel subunit alpha-1H (O95180 whole entry): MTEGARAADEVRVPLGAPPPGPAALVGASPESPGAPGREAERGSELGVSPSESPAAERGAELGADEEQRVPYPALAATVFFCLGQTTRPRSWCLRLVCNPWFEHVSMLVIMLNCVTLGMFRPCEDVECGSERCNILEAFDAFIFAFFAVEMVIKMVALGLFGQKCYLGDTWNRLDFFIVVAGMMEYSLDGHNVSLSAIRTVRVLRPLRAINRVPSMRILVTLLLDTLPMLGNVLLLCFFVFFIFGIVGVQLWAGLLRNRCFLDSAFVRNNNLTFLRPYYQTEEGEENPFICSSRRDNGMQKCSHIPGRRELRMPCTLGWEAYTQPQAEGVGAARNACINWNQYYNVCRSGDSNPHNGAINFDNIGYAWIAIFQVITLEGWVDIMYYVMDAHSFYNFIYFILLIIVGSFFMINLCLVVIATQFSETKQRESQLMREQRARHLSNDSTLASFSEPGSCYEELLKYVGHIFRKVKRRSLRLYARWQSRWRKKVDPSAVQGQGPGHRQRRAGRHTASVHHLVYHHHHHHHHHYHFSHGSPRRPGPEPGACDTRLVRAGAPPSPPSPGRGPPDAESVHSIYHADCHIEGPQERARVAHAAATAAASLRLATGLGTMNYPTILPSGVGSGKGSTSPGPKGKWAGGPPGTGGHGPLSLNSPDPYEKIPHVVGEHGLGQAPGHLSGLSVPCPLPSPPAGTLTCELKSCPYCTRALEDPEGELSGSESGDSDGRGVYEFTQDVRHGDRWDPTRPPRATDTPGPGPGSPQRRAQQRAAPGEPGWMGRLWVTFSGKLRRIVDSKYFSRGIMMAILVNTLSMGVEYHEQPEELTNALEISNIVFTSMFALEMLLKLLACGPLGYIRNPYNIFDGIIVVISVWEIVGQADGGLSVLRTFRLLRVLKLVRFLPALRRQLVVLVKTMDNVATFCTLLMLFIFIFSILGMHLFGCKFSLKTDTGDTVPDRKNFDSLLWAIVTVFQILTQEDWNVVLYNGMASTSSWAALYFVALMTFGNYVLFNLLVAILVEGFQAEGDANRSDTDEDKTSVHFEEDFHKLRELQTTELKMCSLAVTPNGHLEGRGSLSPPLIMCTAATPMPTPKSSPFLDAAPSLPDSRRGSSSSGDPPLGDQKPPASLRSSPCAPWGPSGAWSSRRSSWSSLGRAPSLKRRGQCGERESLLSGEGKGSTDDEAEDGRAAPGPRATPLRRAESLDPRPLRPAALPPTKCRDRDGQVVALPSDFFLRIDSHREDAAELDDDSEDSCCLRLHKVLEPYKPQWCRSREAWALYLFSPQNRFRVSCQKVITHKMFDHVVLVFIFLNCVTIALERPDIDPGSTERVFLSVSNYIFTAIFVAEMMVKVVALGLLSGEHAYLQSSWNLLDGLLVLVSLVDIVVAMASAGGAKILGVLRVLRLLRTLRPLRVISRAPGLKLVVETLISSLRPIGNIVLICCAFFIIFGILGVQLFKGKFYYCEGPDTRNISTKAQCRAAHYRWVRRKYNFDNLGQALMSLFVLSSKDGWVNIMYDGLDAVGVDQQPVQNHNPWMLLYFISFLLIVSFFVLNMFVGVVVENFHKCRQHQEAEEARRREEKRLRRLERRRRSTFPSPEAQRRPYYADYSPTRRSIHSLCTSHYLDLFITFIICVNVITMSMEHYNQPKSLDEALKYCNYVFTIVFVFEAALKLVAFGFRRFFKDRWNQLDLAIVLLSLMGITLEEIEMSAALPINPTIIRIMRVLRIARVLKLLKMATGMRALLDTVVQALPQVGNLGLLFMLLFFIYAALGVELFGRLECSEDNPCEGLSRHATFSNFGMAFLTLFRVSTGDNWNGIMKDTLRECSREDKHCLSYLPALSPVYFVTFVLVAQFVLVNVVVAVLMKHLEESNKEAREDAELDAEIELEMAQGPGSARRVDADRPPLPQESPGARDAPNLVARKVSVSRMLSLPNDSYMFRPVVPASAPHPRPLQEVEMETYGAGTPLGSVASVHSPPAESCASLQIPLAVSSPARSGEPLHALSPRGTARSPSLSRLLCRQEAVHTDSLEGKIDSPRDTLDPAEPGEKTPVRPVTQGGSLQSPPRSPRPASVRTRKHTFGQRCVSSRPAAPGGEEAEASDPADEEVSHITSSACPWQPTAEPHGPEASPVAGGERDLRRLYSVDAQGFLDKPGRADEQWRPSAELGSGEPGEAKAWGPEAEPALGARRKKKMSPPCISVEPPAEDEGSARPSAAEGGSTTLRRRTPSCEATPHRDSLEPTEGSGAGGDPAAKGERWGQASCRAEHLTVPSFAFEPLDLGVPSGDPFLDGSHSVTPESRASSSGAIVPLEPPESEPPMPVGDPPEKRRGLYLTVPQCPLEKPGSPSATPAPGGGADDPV
Another test concerns the target T1, Leucine aminopeptidase (Plasmodium falciparum 3D7, UniProt Q8IL11).
T1 sequence (Q8IL11 whole entry): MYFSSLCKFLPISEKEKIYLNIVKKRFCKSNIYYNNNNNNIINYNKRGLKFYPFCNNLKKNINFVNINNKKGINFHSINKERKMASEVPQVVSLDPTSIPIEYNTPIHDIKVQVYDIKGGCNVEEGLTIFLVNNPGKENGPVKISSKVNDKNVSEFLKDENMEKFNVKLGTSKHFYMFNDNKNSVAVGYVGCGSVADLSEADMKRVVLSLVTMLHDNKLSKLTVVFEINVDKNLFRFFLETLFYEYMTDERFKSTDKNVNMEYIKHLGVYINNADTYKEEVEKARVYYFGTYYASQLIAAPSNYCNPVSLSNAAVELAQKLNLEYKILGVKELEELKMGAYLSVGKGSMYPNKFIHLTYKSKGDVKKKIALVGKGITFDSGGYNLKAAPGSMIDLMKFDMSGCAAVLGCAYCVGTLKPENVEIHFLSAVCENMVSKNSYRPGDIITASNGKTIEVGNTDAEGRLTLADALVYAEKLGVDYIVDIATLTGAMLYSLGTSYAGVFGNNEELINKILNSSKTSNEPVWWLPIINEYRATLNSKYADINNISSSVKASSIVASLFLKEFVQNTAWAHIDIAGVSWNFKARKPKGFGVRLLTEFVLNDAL
Put plainly: P. falciparum M17LAP inhibitors, primary screen, biochemical, fluorogenic H-Leu-NHMec substrate, 1536-well (AID 1619). The test is classed as functional.

For another test, the target named is Genome polyprotein (dengue virus type 2, UniProt P29990). Put plainly: flavivirus cap methylation enzyme inhibition – biochemical, confirmation dose response, primary screen (AID 588689). The test is classed as functional.
Chain of Genome polyprotein (P29990 2492-3391 limits assumed): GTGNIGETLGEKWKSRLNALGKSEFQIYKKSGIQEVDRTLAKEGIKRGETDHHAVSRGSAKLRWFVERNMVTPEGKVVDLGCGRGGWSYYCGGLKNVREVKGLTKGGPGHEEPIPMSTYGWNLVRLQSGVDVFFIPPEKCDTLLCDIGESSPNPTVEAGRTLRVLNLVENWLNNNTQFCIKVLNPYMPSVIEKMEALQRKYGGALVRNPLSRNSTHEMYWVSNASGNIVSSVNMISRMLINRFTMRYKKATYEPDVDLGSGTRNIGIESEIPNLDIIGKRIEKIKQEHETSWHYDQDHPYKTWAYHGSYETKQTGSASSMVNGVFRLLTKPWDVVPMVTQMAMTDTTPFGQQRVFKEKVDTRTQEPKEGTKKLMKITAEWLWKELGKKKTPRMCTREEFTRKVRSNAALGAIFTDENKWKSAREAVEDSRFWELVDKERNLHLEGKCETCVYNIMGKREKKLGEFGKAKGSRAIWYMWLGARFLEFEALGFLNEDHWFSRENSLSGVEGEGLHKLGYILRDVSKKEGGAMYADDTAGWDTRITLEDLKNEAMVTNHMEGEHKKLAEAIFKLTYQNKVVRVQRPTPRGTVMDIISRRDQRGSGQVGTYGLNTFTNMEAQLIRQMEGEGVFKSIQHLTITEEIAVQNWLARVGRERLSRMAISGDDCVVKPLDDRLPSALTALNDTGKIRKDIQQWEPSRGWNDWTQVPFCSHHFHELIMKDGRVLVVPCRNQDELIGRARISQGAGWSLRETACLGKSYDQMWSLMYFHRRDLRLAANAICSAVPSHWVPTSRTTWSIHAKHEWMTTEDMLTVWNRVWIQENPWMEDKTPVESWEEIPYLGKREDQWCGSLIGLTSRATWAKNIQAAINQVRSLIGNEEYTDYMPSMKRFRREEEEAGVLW
Test [2] concerns the target T2, Replicative DNA helicase DnaB (Mycobacterium tuberculosis, UniProt P9WMR3).
T2 sequence (P9WMR3 whole entry): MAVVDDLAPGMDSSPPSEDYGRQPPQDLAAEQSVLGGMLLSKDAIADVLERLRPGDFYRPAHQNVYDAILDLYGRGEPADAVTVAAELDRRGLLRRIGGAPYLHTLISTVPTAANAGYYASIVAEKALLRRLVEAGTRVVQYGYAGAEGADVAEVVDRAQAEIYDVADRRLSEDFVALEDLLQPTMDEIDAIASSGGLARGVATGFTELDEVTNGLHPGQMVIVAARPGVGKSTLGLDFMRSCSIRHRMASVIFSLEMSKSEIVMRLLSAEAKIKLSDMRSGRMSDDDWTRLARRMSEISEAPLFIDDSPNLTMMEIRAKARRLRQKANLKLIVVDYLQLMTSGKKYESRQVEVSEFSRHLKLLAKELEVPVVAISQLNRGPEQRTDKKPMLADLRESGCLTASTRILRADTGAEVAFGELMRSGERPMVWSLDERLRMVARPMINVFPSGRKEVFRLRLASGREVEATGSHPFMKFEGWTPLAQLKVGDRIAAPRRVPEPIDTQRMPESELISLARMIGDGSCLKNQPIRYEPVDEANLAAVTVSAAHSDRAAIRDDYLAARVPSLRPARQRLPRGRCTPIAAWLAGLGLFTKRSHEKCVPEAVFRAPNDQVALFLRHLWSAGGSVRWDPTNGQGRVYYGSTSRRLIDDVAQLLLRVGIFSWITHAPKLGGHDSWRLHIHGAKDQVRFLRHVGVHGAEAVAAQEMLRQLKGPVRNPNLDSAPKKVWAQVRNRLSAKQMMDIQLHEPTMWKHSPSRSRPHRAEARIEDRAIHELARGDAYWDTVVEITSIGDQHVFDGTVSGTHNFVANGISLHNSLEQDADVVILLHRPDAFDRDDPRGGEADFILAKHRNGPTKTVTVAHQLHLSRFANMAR
Put plainly: DnaB intein splicing inhibitors, dose response, biochemical, cell-free fluorescence (AID 449749). It counts as functional.

For a further test, the target named is T3, Protein RecA (Mycobacterium tuberculosis, UniProt P9WHJ3).
T3 sequence (P9WHJ3 whole entry): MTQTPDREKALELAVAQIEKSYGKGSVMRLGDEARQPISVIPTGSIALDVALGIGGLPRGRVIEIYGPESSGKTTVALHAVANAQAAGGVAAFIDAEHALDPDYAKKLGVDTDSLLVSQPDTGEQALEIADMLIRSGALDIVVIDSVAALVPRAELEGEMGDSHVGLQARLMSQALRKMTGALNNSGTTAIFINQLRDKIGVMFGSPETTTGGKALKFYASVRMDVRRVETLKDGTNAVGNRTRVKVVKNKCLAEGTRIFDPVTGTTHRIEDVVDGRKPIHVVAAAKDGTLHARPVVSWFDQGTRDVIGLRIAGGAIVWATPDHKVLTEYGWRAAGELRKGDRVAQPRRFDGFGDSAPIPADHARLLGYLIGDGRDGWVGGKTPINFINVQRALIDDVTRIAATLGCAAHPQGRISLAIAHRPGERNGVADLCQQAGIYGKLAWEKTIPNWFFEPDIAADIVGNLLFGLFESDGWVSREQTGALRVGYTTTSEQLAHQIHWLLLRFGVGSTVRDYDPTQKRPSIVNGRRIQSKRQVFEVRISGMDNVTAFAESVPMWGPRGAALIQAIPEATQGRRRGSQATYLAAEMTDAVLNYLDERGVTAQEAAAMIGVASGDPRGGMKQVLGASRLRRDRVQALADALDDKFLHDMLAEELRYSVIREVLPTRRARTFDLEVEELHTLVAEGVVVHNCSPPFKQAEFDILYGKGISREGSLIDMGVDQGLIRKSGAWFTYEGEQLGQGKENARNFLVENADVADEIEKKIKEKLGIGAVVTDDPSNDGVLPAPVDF
Put plainly: Fluorescence Cell-Free Homogeneous Dose Retest to Identify Inhibitors of RecA-Intein Splicing Activity. [Related pubchem assays (depositor defined):AID2097, AID2223, AID489010, AID492950]. It counts as functional.

For test [3], the target named is T4, Polyadenylate-binding protein 1 (Homo sapiens, UniProt P11940). The experiment in a line: MLLE domain peptide-binding blockers, IC50 – biochemical, fluorescence polarization, FITC-PAM2 peptide, dose response (AID 602259). It counts as functional. As to conditions: read-out: IC50_Mean. Background: Polarisation of emitted light reports the rotation of a fluorescent probe.
T4 sequence (P11940 whole entry, the tested form may be a part): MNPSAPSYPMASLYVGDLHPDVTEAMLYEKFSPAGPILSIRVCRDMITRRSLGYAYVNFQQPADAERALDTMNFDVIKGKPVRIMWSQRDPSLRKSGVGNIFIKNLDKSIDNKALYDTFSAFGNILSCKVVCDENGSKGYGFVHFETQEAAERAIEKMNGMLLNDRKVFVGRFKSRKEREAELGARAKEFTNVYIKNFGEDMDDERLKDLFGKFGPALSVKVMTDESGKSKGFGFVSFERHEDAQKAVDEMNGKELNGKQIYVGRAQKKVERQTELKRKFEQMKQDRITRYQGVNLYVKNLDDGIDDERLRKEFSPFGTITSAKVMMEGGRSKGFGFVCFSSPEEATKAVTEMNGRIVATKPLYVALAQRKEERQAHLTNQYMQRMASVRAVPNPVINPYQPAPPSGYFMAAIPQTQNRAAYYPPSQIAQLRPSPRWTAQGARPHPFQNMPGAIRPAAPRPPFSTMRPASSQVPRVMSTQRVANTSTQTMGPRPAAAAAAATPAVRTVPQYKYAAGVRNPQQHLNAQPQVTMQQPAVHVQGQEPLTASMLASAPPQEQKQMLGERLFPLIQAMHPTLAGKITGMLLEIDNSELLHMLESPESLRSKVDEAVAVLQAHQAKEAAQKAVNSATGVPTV

Test [4] addresses T4, Polyadenylate-binding protein 1. The experiment in a line: MLLE binding blockers, Cy5 peptide tracer – biochemical, fluorescence polarization, Cy5-PAM2 peptide, secondary, miRNA deadenylation inhibitor project, dose response (AID 602260). It counts as functional. Conditions: read-out: IC50_Mean.
The target of test [5] is FAD-linked sulfhydryl oxidase ALR (Homo sapiens, UniProt P55789). The experiment in a line: ALR-catalysed DTT oxidation blockers – biochemical, H2O2 detection, luminescence, cherry-pick, dose response (AID 493248).
Chain of FAD-linked sulfhydryl oxidase ALR (P55789 whole entry): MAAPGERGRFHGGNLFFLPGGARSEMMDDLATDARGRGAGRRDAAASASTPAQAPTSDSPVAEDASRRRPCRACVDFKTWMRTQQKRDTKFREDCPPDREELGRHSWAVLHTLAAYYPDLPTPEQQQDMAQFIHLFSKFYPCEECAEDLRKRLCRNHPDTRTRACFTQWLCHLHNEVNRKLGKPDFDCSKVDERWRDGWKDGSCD
Test [6] in a line: Trypanosoma cruzi growth suppression in host cells – NIH3T3 host cells, beta-gal luminescence, confirmation (AID 2044).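 Further: intracellular parasites grown in NIH/3T3 mouse fibroblasts as host cells; luminescent beta-galactosidase reporter signal from transgenic T. cruzi replicating inside host cells; inhibitors lower the luminescence signal.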 The test is classed as functional, cell-based.
Test [7] in a line: NIH3T3 cell viability loss – ATP luminescence, mouse fibroblasts, counter-screen, dose response (AID 2010).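 Further: cells exposed to compound for about 90 hours before reading.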 It counts as functional, cell-based. (A counterscreen serves to expose hits that act by an unwanted route or on another target.)
A further test has as its target Cytochrome P450 3A4 (Homo sapiens, UniProt P08684).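 Further: CYP3A4 tested as one member of a cytochrome P450 panel screen.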
The target of the next test is Cytochrome P450 2C19 (Homo sapiens, UniProt P33261). The experiment in a line: Cytochrome panel assay with activity outcomes. Panel member name: p450-cyp2c19 Compounds with AC50 equal or less than 10 uM are considered active. Conditions: read-out: AC50. The test is classed as functional.
Chain of Cytochrome P450 2C19 (P33261 whole entry): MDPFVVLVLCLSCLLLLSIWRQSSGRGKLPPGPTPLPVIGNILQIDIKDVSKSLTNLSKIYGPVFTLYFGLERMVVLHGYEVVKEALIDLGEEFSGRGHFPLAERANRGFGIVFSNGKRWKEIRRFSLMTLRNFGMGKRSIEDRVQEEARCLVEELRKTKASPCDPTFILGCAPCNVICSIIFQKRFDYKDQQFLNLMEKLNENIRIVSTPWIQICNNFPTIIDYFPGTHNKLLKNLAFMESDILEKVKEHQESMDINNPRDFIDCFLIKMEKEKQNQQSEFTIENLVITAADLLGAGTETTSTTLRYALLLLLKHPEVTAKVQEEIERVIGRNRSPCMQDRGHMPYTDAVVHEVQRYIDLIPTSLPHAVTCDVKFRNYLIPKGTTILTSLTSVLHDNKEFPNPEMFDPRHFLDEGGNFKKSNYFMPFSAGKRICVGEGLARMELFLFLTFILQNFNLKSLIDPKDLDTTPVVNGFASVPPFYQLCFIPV

Active and inactive are the calls of the source.

Chain of Cytochrome P450 3A4 (P08684 whole entry): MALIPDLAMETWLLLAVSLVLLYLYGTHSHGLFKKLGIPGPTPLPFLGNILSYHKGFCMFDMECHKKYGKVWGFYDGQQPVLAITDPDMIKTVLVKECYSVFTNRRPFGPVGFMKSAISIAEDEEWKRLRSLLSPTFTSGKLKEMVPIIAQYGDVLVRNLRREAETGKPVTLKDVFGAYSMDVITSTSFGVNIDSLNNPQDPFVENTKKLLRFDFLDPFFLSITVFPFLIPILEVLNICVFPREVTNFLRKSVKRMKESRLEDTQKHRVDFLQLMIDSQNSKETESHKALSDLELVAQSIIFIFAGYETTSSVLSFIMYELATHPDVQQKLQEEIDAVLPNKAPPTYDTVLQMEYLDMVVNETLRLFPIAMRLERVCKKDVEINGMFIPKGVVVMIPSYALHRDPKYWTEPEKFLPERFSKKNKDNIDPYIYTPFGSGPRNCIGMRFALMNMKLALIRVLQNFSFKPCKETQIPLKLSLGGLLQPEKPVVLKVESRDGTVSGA

For the compound `COc1cc(/C=C(/C#N)C(N)=O)ccc1O`, the GI50 with P388/ADR, in the test on P388 and in the test with SN12K1 was > 100 µM (inactive) in each case.
`COc1ccccc1N1CCN(CC(O)COc2ccc3c(c2)CCC3)CC1` (configuration not stated): the 50% effective concentration (EC50) (commonly the concentration giving half of the maximal effect) in [1] was 5.92 µM (active).
With `C=CCn1c2ccccc2c2c(C)c3cnccc3c(C)c21`, the GI50 – broadly, the concentration at which growth is held to half of that of the control – in the test on P388/ADR was 11.2 µM (inactive); in the test with P388 it was 3.34 µM (inactive); in the test with SN12K1, 8.41 µM (inactive).
On to `CC(=O)Nc1c(O)nc(SCC(=O)Nc2sc3c(c2C#N)CCCCCC3)nc1O`, for which the IC50 at Leucine aminopeptidase was 27.9 µM (active).
For the compound `CC(=O)Oc1ccc(/C=C2/C(=O)N(c3ccccc3)N=C2C)cc1`, at Genome polyprotein, the IC50 was 56 µM (active). For the same compound, the AC50 (usually the concentration at which the activity in the assay is half-maximal) in [2] was 2.76 µM (active). Also, the 50% effective concentration (EC50) at Protein RecA was 2.72 µM (active).
On to `CC(=O)Nc1ccc(Nc2ccc3c4c(cc(=O)n3C)-c3ccccc3C(=O)c24)cc1`, for which the IC50 in test [3] is 59.4 µM (inactive); in test [4], > 66 µM (inactive).
As for `CCN(CC)S(=O)(=O)c1ccc(N2CCOCC2)c(NC(=O)CCC2CCCCC2)c1`, the IC50 in [3] and in test [4] was > 66 µM (inactive) each time.
Consider `Cc1cc([N+](=O)[O-])ccc1N1C(=O)c2ccc(C(=O)Nc3ccccc3C(=O)O)cc2C1=O`, for which the IC50 at Genome polyprotein is 67.9 µM (active). In test [5], the AC50 was 57 µM (active).
On to `Cc1[nH]c(=O)[nH]c(=O)c1/C=C/C(=O)NC(CO)C[S+]([O-])Cc1ccccc1` (configuration not stated), for which the GI50 is > 300 µM (inactive) in the test on P388/ADR, > 179 µM (inactive) in the test with P388 and > 300 µM (inactive) in the test on SN12K1.
`N/C(=N\O)N/N=C\c1c(O)cc(O)cc1O`: the GI50 in the test with P388/ADR is 17.5 µM (inactive); with P388 it was > 44.4 µM (inactive); with SN12K1, 15.7 µM (inactive).
Consider `COc1ccccc1NS(=O)(=O)c1cc(NC(=O)Nc2cccc(C)c2)ccc1N1CCCCC1`, for which the values for the EC50 in test [6] and in test [7] were 2.16 µM (active) and > 60 µM (not active), respectively. Besides, the IC50 in [3] and in [4] was > 66 µM (inactive) in each case.
With `COC(=O)c1cccc(NC(=O)Cn2cnc3ccccc3c2=O)c1`, on Leucine aminopeptidase, the IC50 was 43.5 µM (active).
Consider `NC(=O)c1c(NC(=O)C2CCCO2)sc2c1CCCCC2` (configuration not stated), for which the IC50 was > 66 µM (inactive) in test [3], > 66 µM (inactive) in test [4] and 58.7 µM (active) at Leucine aminopeptidase.
For the compound `COc1cc(-c2ccc(/N=N/c3ccc4c(S(=O)(=O)O)cc(S(=O)(=O)O)c(N)c4c3O)c(OC)c2)ccc1/N=N/c1ccc2c(S(=O)(=O)O)cc(S(=O)(=O)O)c(N)c2c1O`, the GI50 in the test with P388/ADR, in the test with P388 and with SN12K1 was > 100 µM (inactive) in each case.
As for `COc1ccc(-c2c[nH]nc2N)cc1`, on Leucine aminopeptidase, the IC50 is 60.8 µM (active).
Turning to `C[C@@H]1CCC2[C@](C)(CO)[C@@H](O)CC[C@]2(C)[C@@]12CC[C@@](CO)(CC(=O)O)O2` (some centres not stated), the IC50 in [3] and in test [4] was > 66 µM (inactive) in each case.
For the compound `O=C1c2ccccc2OCC1/C=N/O` (configuration not stated), the GI50 with P388 was 18.9 µM (inactive); with SN12K1 it was 40.5 µM (inactive).
`COc1ccccc1-n1c(N)c(C(N)=O)sc1=S`: the IC50 in test [3] and in test [4] was > 66 µM (inactive) each time.
Regarding `C=CC12CN(C)C3C4COC(CC41)C1(C(=O)Nc4ccccc41)C32` (configuration not stated), the GI50 is 136 µM (inactive) in the test with P388/ADR, 63.1 µM (inactive) with P388 and 185 µM (inactive) with SN12K1.
Turning to `c1cc(-c2ccoc2)n2ccnc2c1`, the IC50 in test [3] and in test [4] was > 66 µM (inactive) throughout.
Turning to `CC1[C@@H]2CC=C3[C@H]4CCC5Cc6nc7c(nc6C[C@@]5(C)C4CC(=O)[C@]32CO[C@]12OC(C)(C)CC2O)CC1CC[C@@H]2C3=C[C@H]4O[C@@]5(O[C@@](C)(CO)C[C@@H]5O)C(C)[C@@]4(O)[C@]3(C)[C@@H](O)CC2[C@]1(C)C7` (some centres not stated), the figures for the GI50 with P388/ADR, in the test with P388 and in the test on SN12K1 were 0.00152 µM (active), 0.000365 µM (active) and 0.000365 µM (active), respectively.
Take `CCOC(=O)CSC(C)C(=O)Nc1nnc(C(C)C)s1` (configuration not stated): the IC50 at Leucine aminopeptidase is 37.7 µM (active).
Take `Cc1ccc(NC(=O)CN(C)C(=O)CSc2n[nH]c(N)n2)cc1`: the half-maximal activity concentration (AC50) at Cytochrome P450 3A4 was 31.6 µM (inconclusive); on Cytochrome P450 2C19, 0.0355 µM (inconclusive). In addition, the IC50 on Leucine aminopeptidase is 44.7 µM (active).
In the case of `C[C@H](NS(=O)(=O)c1ccc2c(c1)OCCCO2)C(=O)N1CCN(c2ccc(F)cc2)CC1`, the IC50 in test [3] and in test [4] was > 66 µM (inactive) throughout.
Turning to `CC1CCC2(C(=O)O)CCC3(C)C(=CCC4C5(C)CCC(O)C(C)(C)C5CCC43C)C2C1C` (configuration not stated), the values for the GI50 with P388/ADR, with P388 and in the test with SN12K1 were 2.1 µM (inactive), 2.27 µM (inactive) and 4.12 µM (inactive), respectively.
As to `O=C(O)c1ccccc1-c1ccccc1C(=O)Nc1ccc2c(c1)C(=O)c1ccccc1-2`, the IC50 on Genome polyprotein was 58.9 µM (active).
`CC1=C2C(O)C(C(C)C(=O)NCC(C)C)CCC2(C)C=CC1=O` (configuration not stated): the GI50 in the test with P388/ADR, with P388 and in the test with SN12K1 was > 100 µM (inactive) each time.
